Tests used:
Sulfotransferase 1E1 [1] = biological target: T1, Sulfotransferase 1E1 (Homo sapiens, UniProt P49888); test: Substrate activity at SULT1E1 (unknown origin) expressed in baculovirus infected Sf9 cells assessed as substrate Km incubated for 15 mins using [35S-]PAPS as sulfate donor by TLC analysis; settings: sf9, 0.25 h, BLD = below limit of detection
T1 sequence (P49888 whole entry): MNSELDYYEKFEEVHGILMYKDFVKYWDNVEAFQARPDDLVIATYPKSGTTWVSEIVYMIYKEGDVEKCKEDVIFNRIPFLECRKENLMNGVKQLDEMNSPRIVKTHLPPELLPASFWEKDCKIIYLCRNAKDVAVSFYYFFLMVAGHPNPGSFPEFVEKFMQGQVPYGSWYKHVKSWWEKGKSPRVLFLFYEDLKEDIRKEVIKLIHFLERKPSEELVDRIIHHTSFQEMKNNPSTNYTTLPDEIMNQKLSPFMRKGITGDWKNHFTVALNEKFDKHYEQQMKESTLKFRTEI

Sulfotransferase 1E1 [2] = biological target: T1, Sulfotransferase 1E1; test: Substrate activity at SULT1E1 (unknown origin) expressed in baculovirus infected Sf9 cells assessed as substrate Vmax incubated for 15 mins using [35S-]PAPS as sulfate donor by TLC analysis; settings: sf9, 0.25 h, BLD = below limit of detection
Sulfotransferase 1E1 [3] = biological target: T1, Sulfotransferase 1E1; test: Substrate activity at SULT1E1 (unknown origin) expressed in baculovirus infected Sf9 cells assessed as substrate Vmax/Km ratio level incubated for 15 mins using [35S-]PAPS as sulfate donor by TLC analysis; settings: sf9, 0.25 h
Sulfotransferase 2A1 [4] = biological target: T2, Sulfotransferase 2A1 (Homo sapiens, UniProt Q06520); test: Substrate activity at SULT2A1 (unknown origin) expressed in baculovirus infected Sf9 cells assessed as substrate Km incubated for 15 mins using [35S-]PAPS as sulfate donor by TLC analysis; settings: sf9, 0.25 h, BLD = below limit of detection
T2 sequence (Q06520 whole entry): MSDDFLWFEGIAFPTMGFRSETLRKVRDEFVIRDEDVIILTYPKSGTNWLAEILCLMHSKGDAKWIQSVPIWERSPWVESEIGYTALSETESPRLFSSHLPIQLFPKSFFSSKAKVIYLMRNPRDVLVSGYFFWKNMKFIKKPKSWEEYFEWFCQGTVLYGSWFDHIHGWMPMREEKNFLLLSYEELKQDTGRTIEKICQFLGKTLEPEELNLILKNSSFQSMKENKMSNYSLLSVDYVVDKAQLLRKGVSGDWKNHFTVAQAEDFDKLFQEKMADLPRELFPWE

Sulfotransferase 2A1 [5] = biological target: T2, Sulfotransferase 2A1; test: Substrate activity at SULT2A1 (unknown origin) expressed in baculovirus infected Sf9 cells assessed as substrate Vmax incubated for 15 mins using [35S-]PAPS as sulfate donor by TLC analysis; settings: sf9, 0.25 h, BLD = below limit of detection
Sulfotransferase 2A1 [6] = biological target: T2, Sulfotransferase 2A1; test: Substrate activity at SULT2A1 (unknown origin) expressed in baculovirus infected Sf9 cells assessed as substrate Vmax/Km ratio incubated for 15 mins using [35S-]PAPS as sulfate donor by TLC analysis; settings: sf9, 0.25 h, BLD = below limit of detection
Sulfotransferase 1A1 [7] = biological target: T3, Sulfotransferase 1A1 (Homo sapiens, UniProt P50225); test: Substrate activity at SULT1A1 (unknown origin) expressed in baculovirus infected Sf9 cells assessed as substrate Km incubated for 15 mins using [35S-]PAPS as sulfate donor by TLC analysis; settings: sf9, 0.25 h, BLD = below limit of detection
Sulfotransferase 1A1 [8] = biological target: T3, Sulfotransferase 1A1; test: Substrate activity at SULT1A1 (unknown origin) expressed in baculovirus infected Sf9 cells assessed as substrate Vmax incubated for 15 mins using [35S-]PAPS as sulfate donor by TLC analysis; settings: sf9, 0.25 h, BLD = below limit of detection
Sulfotransferase 1A1 [9] = biological target: T3, Sulfotransferase 1A1; test: Substrate activity at SULT1A1 (unknown origin) expressed in baculovirus infected Sf9 cells assessed as substrate Vmax/Km ratio incubated for 15 mins using [35S-]PAPS as sulfate donor by TLC analysis; settings: sf9, 0.25 h, BLD = below limit of detection
[10] = Drug uptake in lung of Sprague-Dawley rat with lung inflammation assessed as sulfated form formation at 2 to 2.5 mCi dosed via injection measured after 10 to 15 mins post dose by microPET imaging method; assay type: ADME, organism-based; settings: in vivo
[11] = Drug uptake in liver of smoker human subject at 10.5 mCi by microPET imaging method; assay type: ADME
[12] = Drug uptake in kidney of smoker human subject at 10.5 mCi by microPET imaging method; assay type: ADME
[13] = Drug uptake in lung of smoker human subject at 10.5 mCi by microPET imaging method; assay type: ADME
[14] = Drug uptake in liver of non-smoker human subject at 10 mCi by microPET imaging method; assay type: ADME
[15] = Drug uptake in kidney of non-smoker human subject at 10 mCi by microPET imaging method; assay type: ADME
[16] = Drug uptake in lung of non-smoker human subject at 10 mCi by microPET imaging method; assay type: ADME

T3 sequence (P50225 whole entry): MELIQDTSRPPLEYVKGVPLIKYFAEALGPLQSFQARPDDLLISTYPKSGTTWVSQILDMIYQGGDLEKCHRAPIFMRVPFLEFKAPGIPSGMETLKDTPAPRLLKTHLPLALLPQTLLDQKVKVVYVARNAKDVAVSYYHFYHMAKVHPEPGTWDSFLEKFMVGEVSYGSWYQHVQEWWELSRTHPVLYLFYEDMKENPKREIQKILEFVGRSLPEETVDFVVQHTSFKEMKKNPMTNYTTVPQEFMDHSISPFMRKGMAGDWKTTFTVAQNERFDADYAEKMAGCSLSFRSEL

Km (Sulfotransferase 2A1 [4])	Vmax (Sulfotransferase 2A1 [5])	Vmax/Km (Sulfotransferase 2A1 [6])	Vmax/Km (Sulfotransferase 1E1 [3])	Km (Sulfotransferase 1A1 [7])	Vmax (Sulfotransferase 1A1 [8])	Vmax/Km (Sulfotransferase 1A1 [9])	SMILES	also measured
Bld	Bld	Bld					Oc1ccc2cc[nH]c2c1	Km (Sulfotransferase 1E1 [1]): Bld; Vmax (Sulfotransferase 1E1 [2]): Bld; Vmax/Km (Sulfotransferase 1E1 [3]; BLD = below limit of detection): Bld
Bld	Bld	Bld	0.01				Oc1ccc2occc2c1	
Bld	Bld	Bld	0.03				Oc1ccc2ccoc2c1	
Bld	Bld	Bld					Oc1ccc2[nH]ccc2c1	Km (Sulfotransferase 1E1 [1]): Bld; Vmax (Sulfotransferase 1E1 [2]): Bld; Vmax/Km (Sulfotransferase 1E1 [3]; BLD = below limit of detection): Bld
Bld	Bld	Bld	2.69	Bld	Bld	Bld	CS(=O)(=O)c1ccc(-c2nc3ccc(O)cc3s2)cc1	
Bld	Bld	Bld	0.87	Bld	Bld	Bld	CC(=O)Nc1ccc(-c2nc3ccc(O)cc3s2)cc1	
Bld	Bld	Bld	0.08				Oc1ccc2sccc2c1	
Bld	Bld	Bld	0.47				Cc1nc2ccc(O)cc2s1	
Bld	Bld	Bld	0.3				Cc1nc2cc(O)ccc2s1	
Bld	Bld	Bld	2.47				CN(C)c1ccc(-c2nc3cc(O)ccc3s2)cc1	
Bld	Bld	Bld	0.006				Oc1ccc2ncoc2c1	
Bld	Bld	Bld	2.19	Bld	Bld	Bld	COc1ccc(-c2nc3ccc(O)cc3s2)cc1	
Bld	Bld	Bld	17.1	Bld	Bld	Bld	N#Cc1ccc(-c2nc3ccc(O)cc3s2)cc1	
Bld	Bld	Bld	29.2	Bld	Bld	Bld	O=[N+]([O-])c1ccc(-c2nc3ccc(O)cc3s2)cc1	
Bld	Bld	Bld	5.64	Bld	Bld	Bld	Oc1ccc2nc(-c3ccc(I)cc3)sc2c1	
Bld	Bld	Bld	0.25				Oc1ccc2ccsc2c1	
Bld	Bld	Bld	0.04				Oc1ccc2ncsc2c1	
Bld	Bld	Bld	3.22				Oc1ccc2nc(-c3ccccc3)sc2c1	
Bld	Bld	Bld	4.52	Bld	Bld	Bld	Oc1ccc2nc(-c3ccc(F)cc3)sc2c1	
Bld	Bld	Bld	1.39				CNc1ccc(-c2nc3cc(O)ccc3s2)cc1	
Bld	Bld	Bld	1.11	Bld	Bld	Bld	CN(C)c1ccc(-c2nc3ccc(O)cc3s2)cc1	
Bld	Bld	Bld	1.7	Bld	Bld	Bld	Nc1ccc(-c2nc3ccc(O)cc3s2)cc1	
Bld	Bld	Bld	1.28	Bld	Bld	Bld	CNc1ccc(-c2nc3ccc(O)cc3s2)cc1 [PITTSBURGH COMPOUND B UNLABELLED]	
							[11CH3]Nc1ccc(-c2nc3ccc(O)cc3s2)cc1 [PITTSBURGH COMPOUND B]	Drug uptake [10]: Active; Drug uptake [11]: Active; Drug uptake [12]: Active; Drug uptake [13]: Active; Drug uptake [14]: Active; Drug uptake [15]: Active; Drug uptake [16]: Active

SMILES	Km (Sulfotransferase 2A1 [4])	Vmax (Sulfotransferase 2A1 [5])	Vmax/Km (Sulfotransferase 2A1 [6])	Vmax/Km (Sulfotransferase 1E1 [3])	Km (Sulfotransferase 1A1 [7])	Vmax (Sulfotransferase 1A1 [8])	Vmax/Km (Sulfotransferase 1A1 [9])	also measured
Oc1ccc2[nH]cnc2c1	Bld	Bld	Bld					Km (Sulfotransferase 1E1 [1]): Bld; Vmax (Sulfotransferase 1E1 [2]): Bld; Vmax/Km (Sulfotransferase 1E1 [3]; BLD = below limit of detection): Bld
Oc1ccc2ccccc2c1 [BETANAPHTHOL]				0.57				

Reference: ChEMBL document CHEMBL4482315, “In vivo imaging of sulfotransferases” (2013)
